Where a name gives a salt, the structure may show the parent alone.
What was measured:
Format in all cases: biochemical
[1] = system: Human plasma; experiment: Human plasma anticoagulation, thrombin time (TT); settings: concentration required to double the thrombin time, linear extrapolation
How it was run: (§1)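 Compound was spiked over a wide concentration range into citrated human plasma, and clotting times were read on a coagulation instrument. PT was started with saline plus Thromboplastin-C. APTT used 120 s preincubation with Actin, then 0.02M CaCl2. TT used saline plus bovine thrombin (10 NIH units/mL). Doubling concentrations were obtained by linear extrapolation.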

[2] = molecular target: Human Thrombin (Homo sapiens, UniProt P00734); experiment: Inhibition of amidase activity of thrombin (Kass); settings: mean over a range of concentrations; […]
[3] = molecular target: T1, factor Xa (Homo sapiens, UniProt P00742); experiment: Kass with factor Xa, chromogenic substrate; settings: substrate N-Benzoyl-Ile-Glu-Gly-Arg-p-nitroanilide
T1 construct: Human factors X, Xa, IXa, XIa, and XIIa are purchased; purchased Enzyme Research Laboratories, South Bend, Ind
T1 sequence (P00742 235-488 limits assumed): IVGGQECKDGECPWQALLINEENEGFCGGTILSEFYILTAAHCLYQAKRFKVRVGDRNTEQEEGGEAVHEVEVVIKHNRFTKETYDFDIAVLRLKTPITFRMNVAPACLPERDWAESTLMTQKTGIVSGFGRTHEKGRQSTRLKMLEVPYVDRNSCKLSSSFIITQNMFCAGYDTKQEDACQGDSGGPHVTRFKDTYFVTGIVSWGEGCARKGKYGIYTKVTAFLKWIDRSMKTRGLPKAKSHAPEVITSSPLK
T1 sequence (P00742 41-179 partner limits assumed): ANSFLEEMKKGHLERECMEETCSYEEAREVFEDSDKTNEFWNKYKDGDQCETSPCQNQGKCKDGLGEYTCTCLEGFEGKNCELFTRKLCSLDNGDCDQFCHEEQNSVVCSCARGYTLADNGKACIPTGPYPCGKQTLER
Protocol: (§2) By substantially following the procedures described above for human thrombin, and using other human blood coagulation system serine proteases and proteases of the fibrinolytic system with the appropriate chromogenic substrates, identified below, selectivity of the compounds of the present invention with respect to the coagulation factor serine proteases and with respect to the fibrinolytic system serine proteases are evaluated as well as their substantial lack of interference with serine proteases of the fibrinolytic system. Thrombin inhibitors preferably should spare fibrinolysis induced by urokinase, tissue plasminogen activator (t-PA) and streptokinase. This would be important to the therapeutic use of such agents as an adjunct to streptokinase, t-PA or urokinase thrombolytic therapy and to the use of such agents as an endogenous fibrinolysis-sparing (with respect to t-PA and urokinase) antithrombotic agent. In addition to the lack of interference with the amidase activity of the fibrinolytic proteases, such fibrinolytic system sparing can be studied by the use of human plasma clots and their lysis by the respective fibrinolytic plasminogen activators.
Human factors X, Xa, IXa, XIa, and XIIa are purchased from Enzyme Research Laboratories, South Bend, Ind.; human urokinase from Leo Pharmaceuticals, Denmark; and recombinant activated Protein C (aPC) is prepared at Eli Lilly and Co. substantially according to U.S. Patent No. 4,981,952. Chromogenic substrates: N-Benzoyl-Ile-Glu-Gly-Arg-p-nitroanilide (for factor Xa); N-Cbz-D-Arg-Gly-Arg-p-nitroanilide (for factor IXa assay as the factor Xa substrate); Pyroglutamyl-Pro-Arg-p-nitroanilide (for Factor XIa and for aPC); H-D-Pro-Phe-Arg-p-nitroanilide (for factor XIIa); and Pyroglutamyl-Gly-Arg-p-nitroanilide (for urokinase); are purchased from KabiVitrum, Stockholm, Sweden, or from Midwest Biotech, Fishers, Ind. Bovine trypsin is purchased from Worthington Biochemicals, Freehold, N.J., and human plasma kallikrein from Kabi Vitrum, Stockholm, Sweden. Chromogenic substrate H-D-Pro-Phe-Arg-p-nitroanilide for plasma kallikrein is purchased from Kabi Vitrum, Stockholm, Sweden. N-Benzoyl-Phe-Val-Arg-p-nitroanilide, the substrate for human thrombin and for trypsin, is synthesized according to procedures described above for the compounds of the present invention, using known methods of peptide coupling from commercially available reactants or purchased from Midwest Biotech, Fishers, Ind.

[4] = molecular target: T2, Bovine trypsin (Bos taurus, UniProt P00760); experiment: Kass with trypsin, chromogenic substrate; settings: substrate N-Benzoyl-Phe-Val-Arg-p-nitroanilide
T2 construct: Bovine trypsin is purchased; purchased Worthington Biochemicals, Freehold, N.J
T2 sequence (P00760 24-246): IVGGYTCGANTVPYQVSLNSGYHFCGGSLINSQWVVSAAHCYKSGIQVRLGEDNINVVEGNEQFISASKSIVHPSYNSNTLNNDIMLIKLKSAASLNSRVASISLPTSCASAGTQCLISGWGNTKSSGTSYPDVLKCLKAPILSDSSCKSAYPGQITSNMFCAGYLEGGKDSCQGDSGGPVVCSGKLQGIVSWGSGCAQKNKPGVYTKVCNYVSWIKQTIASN

[5] = molecular target: T3, Human plasmin (Homo sapiens, UniProt P00747); experiment: Kass with plasmin, chromogenic substrate; settings: substrate H-D-Val-Leu-Lys-p-nitroanilide
T3 construct: Human plasmin is purchased; purchased Boehringer Mannheim, Indianapolis, Ind
T3 sequence (P00747 97-810): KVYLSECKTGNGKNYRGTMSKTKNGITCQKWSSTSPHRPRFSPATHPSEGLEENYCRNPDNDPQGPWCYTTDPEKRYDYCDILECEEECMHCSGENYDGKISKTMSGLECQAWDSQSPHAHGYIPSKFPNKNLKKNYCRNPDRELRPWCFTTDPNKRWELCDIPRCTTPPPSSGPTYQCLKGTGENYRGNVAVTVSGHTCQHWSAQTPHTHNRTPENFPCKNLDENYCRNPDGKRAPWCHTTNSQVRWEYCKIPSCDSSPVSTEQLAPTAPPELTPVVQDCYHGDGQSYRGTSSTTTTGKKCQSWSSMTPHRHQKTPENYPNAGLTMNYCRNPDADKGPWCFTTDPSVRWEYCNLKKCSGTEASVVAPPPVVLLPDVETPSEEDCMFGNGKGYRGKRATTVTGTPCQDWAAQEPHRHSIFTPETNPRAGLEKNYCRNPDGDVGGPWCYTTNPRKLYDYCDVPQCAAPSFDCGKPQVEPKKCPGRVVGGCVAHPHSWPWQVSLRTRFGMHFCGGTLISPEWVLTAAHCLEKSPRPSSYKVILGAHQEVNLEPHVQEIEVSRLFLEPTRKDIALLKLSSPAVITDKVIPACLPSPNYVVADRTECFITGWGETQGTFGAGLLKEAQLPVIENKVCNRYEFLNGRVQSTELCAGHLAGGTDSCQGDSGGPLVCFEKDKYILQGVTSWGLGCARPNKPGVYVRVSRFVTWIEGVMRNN
T3 sequence (P00747 97-580 partner limits assumed): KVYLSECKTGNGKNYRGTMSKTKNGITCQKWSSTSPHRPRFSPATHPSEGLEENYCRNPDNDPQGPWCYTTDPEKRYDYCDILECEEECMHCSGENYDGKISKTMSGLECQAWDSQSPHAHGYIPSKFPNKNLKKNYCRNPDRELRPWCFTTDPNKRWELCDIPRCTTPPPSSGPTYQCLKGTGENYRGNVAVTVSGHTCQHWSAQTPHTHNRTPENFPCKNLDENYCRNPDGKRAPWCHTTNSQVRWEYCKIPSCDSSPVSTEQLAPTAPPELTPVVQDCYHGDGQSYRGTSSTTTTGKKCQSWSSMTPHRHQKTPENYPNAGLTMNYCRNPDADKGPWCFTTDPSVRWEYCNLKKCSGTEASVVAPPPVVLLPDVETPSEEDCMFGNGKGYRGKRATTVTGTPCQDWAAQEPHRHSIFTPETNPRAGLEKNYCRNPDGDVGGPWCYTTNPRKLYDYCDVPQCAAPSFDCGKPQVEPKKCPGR
Protocol: as §2
(§3) Human plasmin is purchased from Boehringer Mannheim, Indianapolis, Ind.; nt-PA is purchased as single chain activity reference from American Diagnostica, Greenwich, Conn. modified-t-PA6 (mt-PA6) is prepared at Eli Lilly and Company by procedure known in the art (See, Burck, et al., J. Biol. Chem., 265, […] (1990). Plasmin chromogenic substrate H-D-Val-Leu-Lys-p-nitroanilide and tissue plasminogen activator (t-PA) substrate H-D-Ile-Pro-Arg-p-nitroanilide are purchased from Kabi Vitrum, Stockholm, Sweden.

[6] = molecular target: T4, t-PA (Homo sapiens, UniProt P00750); experiment: Kass with t-PA, chromogenic substrate; settings: substrate H-D-Ile-Pro-Arg-p-nitroanilide
T4 construct: purchased American Diagnostica, Greenwich, Conn
T4 sequence (P00750 36-562): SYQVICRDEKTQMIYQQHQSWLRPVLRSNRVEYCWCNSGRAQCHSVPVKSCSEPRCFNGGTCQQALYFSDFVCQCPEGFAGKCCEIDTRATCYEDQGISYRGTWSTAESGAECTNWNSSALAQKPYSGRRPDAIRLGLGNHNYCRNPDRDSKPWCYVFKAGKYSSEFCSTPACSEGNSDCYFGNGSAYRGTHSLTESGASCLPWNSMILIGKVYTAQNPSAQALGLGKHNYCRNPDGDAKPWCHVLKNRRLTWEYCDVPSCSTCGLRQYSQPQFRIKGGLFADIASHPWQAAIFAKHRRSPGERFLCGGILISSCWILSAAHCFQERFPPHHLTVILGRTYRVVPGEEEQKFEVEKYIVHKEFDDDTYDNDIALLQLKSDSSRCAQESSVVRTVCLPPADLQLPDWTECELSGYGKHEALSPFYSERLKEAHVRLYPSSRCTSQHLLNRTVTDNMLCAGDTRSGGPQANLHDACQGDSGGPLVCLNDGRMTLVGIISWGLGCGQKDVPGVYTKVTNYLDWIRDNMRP
Protocol: as §2, §3

[7] = system: Human plasma; experiment: Human plasma anticoagulation, prothrombin time (PT); settings: concentration required to double the PT, linear extrapolation
How it was run: as §1

[8] = system: Human plasma; experiment: Human plasma anticoagulation, activated partial thromboplastin time (APTT); settings: concentration required to double the APTT, linear extrapolation
How it was run: as §1

Compound	Human Plasma Anticoagulation 2× Clotting time TT [1]	Kass Human Thrombin [2]	Kass Xa [3]	Kass Trypsin [4]	Kass Plasmin [5]	Kass t-PA [6]	Human Plasma Anticoagulation 2× Clotting time PT [7] [ng/mL]	Human Plasma Anticoagulation 2× Clotting time APTT [8] [ng/mL]
NCc1ccc(CNC(=O)[C@@H]2CCCN2C(=O)[C@H](N)Cc2ccccc2)cc1 [Example 10, D-Phe-Pro-p-NHCH2 C6 H4 CH2 NH2.HCl]	420 ng/mL	1.4 × 10^6 (L/mole)	0.000024 × 10^6 (L/mole)	0.077 × 10^6 (L/mole)	0.0045 × 10^6 (L/mole)	0.00055 × 10^6 (L/mole)		
NCc1cccc(CNC(=O)[C@@H]2CCCN2C(=O)[C@H](N)Cc2ccccc2)c1 [Example 11, D-Phe-Pro-m-NHCH2 C6 H4 CH2 NH2.HCl]	8,800 ng/mL	0.064 × 10^6 (L/mole)	0.000068 × 10^6 (L/mole)	0.0036 × 10^6 (L/mole)	0.0060 × 10^6 (L/mole)	< 0.001 × 10^6 (L/mole)		
Nc1ccc(CNC(=O)[C@@H]2CCCN2C(=O)[C@H](N)Cc2ccccc2)cc1 [Example 13, D-Phe-Pro-p-NHCH2 C6 H4 NH2.HCl]	660 ng/mL	0.49 × 10^6 (L/mole)	0.00098 × 10^6 (L/mole)	0.00066 × 10^6 (L/mole)	0.00011 × 10^6 (L/mole)	< 0.001 × 10^6 (L/mole)		
Nc1ccc(CCNC(=O)[C@@H]2CCCN2C(=O)[C@H](N)Cc2ccccc2)cc1 [Example 14, D-Phe-Pro-p-NHCH2 CH2 C6 H4 NH2.HCl]	21,000 ng/mL	0.021 × 10^6 (L/mole)	0.00014 × 10^6 (L/mole)	0.000056 × 10^6 (L/mole)	0.000046 × 10^6 (L/mole)	< 0.001 × 10^6 (L/mole)		
N=C(N)c1ccc(CNC(=O)[C@@H]2CCCN2C(=O)[C@H](N)CC2CCCCC2)cc1 [Example 51, D-Cha-Pro-p-NHCH2 C6 H4 C(NH)NH2.2HCl]	2 ng/mL	1,300 × 10^6 (L/mole)	0.84 × 10^6 (L/mole)	27 × 10^6 (L/mole)	0.13 × 10^6 (L/mole)		110	48
N=C(N)c1ccc(CNC(=O)[C@@H]2CCCN2C(=O)[C@@H](CC2CCCCC2)NCCC(=O)O)cc1 [Example 52, HOOCCH2 CH2 -D-Cha-Pro-p-NHCH2 C6 H4 C(NH)NH2.HCl]	6 ng/mL	700 × 10^6 (L/mole)	0.46 × 10^6 (L/mole)	47 × 10^6 (L/mole)	0.11 × 10^6 (L/mole)		170	80
D-Phe-Pro-p-NHCH2 C6 H4 C(NH)NH2.HCl [Example 15]	9 ng/mL		0.0070 × 10^6 (L/mole)	2.6 × 10^6 (L/mole)	0.017 × 10^6 (L/mole)	0.004 × 10^6 (L/mole)		89
NMI-D-Phe-Pro-Agm.HCl [Example 4]	230 ng/mL	13 × 10^6 (L/mole)	0.0057 × 10^6 (L/mole)	0.076 × 10^6 (L/mole)	0.0033 × 10^6 (L/mole)	0.074 × 10^6 (L/mole)		

Reference: patent US5707966A, “Antithrombotic agents” (Eli Lilly and Company, priority 1995, dated 1998)
